From US8618151B2, “Inhibitors of HCV NS5A” (Presidio Pharmaceuticals, Inc., priority 2008, dated 2013)

tested on: HCV genotype 1b replicon; assay: HCV replicon assay (1b_Huh-Luc/Neo-ET cell line, luciferase readout); assay type: cell-based; conditions: Hepatitis C virus, Huh-7, 72 h, read-out: Inhibition of HCV genotype 1b
In short: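 1b_Huh-Luc/Neo-ET Huh 7 cells carrying a bicistronic genotype 1b replicon; compounds added in triplicate the day after plating, 72 h incubation, then Bright-Glo luciferase read-out. Signal expressed as % of control; EC50 from curve fit, repeated several times.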

Row | SMILES | EC50 [nM]
1 | COC(=O)N[C@@H](C(=O)N1CCC[C@H]1c1nc(-c2ccc3c(=O)n(-c4ccc(-c5cnc([C@@H]6CCCN6C(=O)[C@H](NC(=O)OC)c6ccccc6)[nH]5)cc4)ccc3c2)c[nH]1)c1ccccc1 [compound 288] | < 1
2 | COC(=O)N[C@H](C(=O)N1CCC[C@H]1c1nc(-c2cnc3cc(-c4ccc(-c5cnc([C@@H]6CCCN6C(=O)[C@H](NC(=O)OC(C)(C)C)c6ccccc6)[nH]5)cc4)ccc3c2)c[nH]1)C1CCOCC1 [compound 72] | < 1
3 | CCNC(=O)N[C@@H](C(=O)N1CCC[C@H]1c1ncc(-c2ccc(-c3ccc4cc(-c5c[nH]c([C@@H]6CCCN6C(=O)[C@@H](NC(=O)OC)C(C)C)n5)ccc4c3)cc2)[nH]1)c1ccccc1 [compound 27] | < 1
4 | COC(=O)N[C@H](C(=O)N1C[C@H](O)C[C@H]1c1ncc(-c2ccc(-c3ccc4cc(-c5cnc([C@@H]6CCCN6C(=O)[C@@H](NC(=O)OC)C6CCOCC6)[nH]5)ccc4n3)cc2)[nH]1)C(C)C [compound 147] | < 1
5 | COC(=O)N[C@H](C(=O)N1CCC[C@H]1c1nc(-c2ccc3nc(-c4ccc(-c5cnc([C@@H]6CCCN6C(=O)[C@H](NC(=O)NC6CC6)c6ccccc6)[nH]5)cc4)ccc3c2)c[nH]1)C(C)C [compound 34] | < 1
6 | COC(=O)N[C@@H](C(=O)N1CCC[C@H]1c1nc(-c2ccc3nc(-c4ccc(-c5cnc([C@@H]6CCCN6C(=O)[C@H](NC(=O)OC)c6ccccc6)[nH]5)nc4)ccc3c2)c[nH]1)c1ccccc1 [compound 54] | < 1
7 | COC(=O)N[C@H](C(=O)N1CCC[C@H]1c1nc2ccc(-c3ccc4cc(-c5cnc([C@@H]6CCCN6C(=O)[C@H](NC(=O)OC)c6ccccc6)[nH]5)ccc4c3)cc2[nH]1)C(C)C [compound 179] | < 1
8 | COC(=O)N[C@H](C(=O)N1CCC[C@H]1c1nc(-c2ccc3cc(-c4ccc(-c5cnc([C@@H]6CCCN6C(=O)[C@@H](NC(=O)OC)C(C)C)[nH]5)cc4F)ccc3c2)c[nH]1)C(C)C [compound 66] | < 1
9 | COC(=O)N[C@H](C(=O)N1CCC[C@H]1c1nc(-c2ccc3cc(-c4ccc(-c5cnc([C@@H]6CCCN6C(=O)[C@H](NC(=O)OC)c6ccccc6)[nH]5)cc4)ccc3c2)c[nH]1)C(C)C [compound 8] | < 1
10 | CNC(=O)N[C@@H](C(=O)N1CCC[C@H]1c1ncc(-c2ccc(-c3cc4ccc(-c5cnc([C@@H]6CCCN6C(=O)[C@@H](NC(=O)OC)C6CCOCC6)[nH]5)cc4cn3)cc2)[nH]1)c1ccccc1 [compound 144] | < 1
11 | COC(=O)N[C@H](C(=O)N1CCOC[C@H]1c1ncc(-c2ccc3cc(-c4ccc(-c5cnc([C@@H]6CCCN6C(=O)[C@H](NC(=O)OC)c6ccccc6)[nH]5)cc4)ccc3c2)[nH]1)C(C)C [compound 138] | < 1
12 | COC(=O)N[C@H](C(=O)N1CCC[C@H]1c1nc2ccc(-c3ccc4cc(-c5cnc([C@@H]6CCCN6C(=O)[C@H](NC(=O)OC)c6ccccc6)[nH]5)cnc4c3)cc2[nH]1)C(C)C [compound 195] | < 1
13 | COC(=O)N[C@H](C(=O)N1CCC[C@H]1c1nc(-c2ccc3nc(-c4ccc(-c5cnc([C@@H]6CCCN6C(=O)[C@@H](NC(=O)OC)C(C)C)[nH]5)nc4)ccc3c2)c[nH]1)C(C)C [compound 53] | < 1
14 | COC(=O)N[C@H](C(=O)N1CCC[C@H]1c1nc(-c2ccc3cc(-c4ccc(-c5cnc([C@@H]6CCCN6C(=O)[C@@H](NC(=O)OC)C(C)C)[nH]5)cc4)ccc3n2)c[nH]1)C(C)C [compound 102] | < 1
15 | COC(=O)N[C@H](C(=O)N1CCC[C@H]1c1ncc(-c2ccc3nc(-c4ccc5c(ccc6nc([C@@H]7CCCN7C(=O)[C@@H](NC(=O)OC)C(C)C)[nH]c65)c4)ccc3c2)[nH]1)C(C)C [compound 296] | < 1
16 | COC(=O)N[C@H](C(=O)N1CCC[C@H]1c1ncc(-c2ccc3cc(-c4ccc(-c5cnc([C@@H]6CCCN6C(=O)[C@H](NC(=O)NC6CC6)c6ccccc6)[nH]5)cc4)ncc3c2)[nH]1)C1CCOCC1 [compound 145] | < 1
17 | COC(=O)N[C@@H](C(=O)N1CCC[C@H]1c1nc(-c2ccc3nc(-c4ccc(-c5cnc([C@@H]6CCCN6C(=O)[C@H](NC(=O)OC)c6ccccc6)[nH]5)c(F)c4)ccc3c2)c[nH]1)c1ccccc1 [compound 109] | < 1
18 | COC(=O)N[C@H](C(=O)N1CCC[C@H]1c1nc(-c2cnc3cc(-c4ccc(-c5cnc([C@@H]6CCCN6C(=O)[C@H](NC(=O)OC6CCOCC6)c6ccccc6)[nH]5)cc4)ccc3c2)c[nH]1)C(C)C [compound 88] | < 1
19 | COC(=O)N[C@H](C(=O)N1CCC[C@H]1c1ncc(-c2ccc(-c3ccc4cc(-c5cnc([C@@H]6CCCN6C(=O)[C@H](NC(=O)OC)c6ccccc6)[nH]5)ccc4n3)cc2F)[nH]1)C(C)C [compound 124] | < 1
20 | COC(=O)N[C@H](C(=O)N1CCC[C@H]1c1ncc(-c2ccc3cc(-c4ccc5nc([C@@H]6CCCN6C(=O)[C@@H](NC(=O)OC)[C@@H](C)OC)[nH]c5c4)ccc3c2)[nH]1)[C@@H](C)OC [compound 176] | < 1
21 | COC(=O)N[C@H](C(=O)N1CCCC[C@H]1c1ncc(-c2ccc(-c3nc4ccc(-c5cnc([C@@H]6CCCCN6C(=O)[C@@H](NC(=O)OC)C(C)C)[nH]5)cc4s3)cc2)[nH]1)C(C)C [compound 243] | < 1

Row | SMILES | EC50 [nM]
22 | CNC(=O)N[C@@H](C(=O)N1CCC[C@H]1c1ncc(-c2ccc3cc(-c4ccc5nc([C@@H]6CCCN6C(=O)[C@@H](NC(=O)OC)C(C)C)[nH]c5c4)ccc3c2)[nH]1)c1ccccc1 [compound 186] | < 1
23 | COC(=O)N[C@H](C(=O)N1CCC[C@H]1c1ncc(-c2ccc3cc(-c4ccc(-c5cnc([C@@H]6CCCN6C(=O)[C@H](NC(=O)OC)c6ccccc6)[nH]5)cc4F)ncc3c2)[nH]1)C(C)C [compound 152] | < 1
24 | COC(=O)N[C@H](C(=O)N1CCC[C@H]1c1nc(-c2ccc3cc(-c4ccc(-c5cnc([C@@H]6CCCN6C(=O)[C@@H](NC(=O)OC)C(C)C)[nH]5)cc4)cnc3c2)c[nH]1)C(C)C [compound 21] | < 1
25 | COC(=O)N[C@H](C(=O)N1CCC[C@H]1c1ncc(-c2ccc(-c3ccc4cc(-c5cnc([C@@H]6CCCN6C(=O)[C@H](NC(=O)OC6CCOCC6)c6ccccc6)[nH]5)ccc4n3)c(F)c2)[nH]1)C(C)C [compound 121] | < 1
26 | COC(=O)N[C@@H](C(=O)N1CCCC[C@H]1c1ncc(-c2ccc(-c3nc4ccc(-c5cnc([C@@H]6CCCCN6C(=O)[C@H](NC(=O)OC)c6ccccc6)[nH]5)cc4s3)cc2)[nH]1)c1ccccc1 [compound 248] | < 1
27 | COC(=O)N[C@H](C(=O)N1CCC[C@H]1c1ncc(-c2ccc(-c3ccc4cc(-c5c[nH]c([C@@H]6CCCN6C(=O)[C@@H](NC(=O)OC)C6CCOCC6)n5)ccc4n3)cc2)[nH]1)C(C)C [compound 39] | < 1
28 | COC(=O)N[C@H](C(=O)N1CCC[C@H]1c1ncc(-c2ccc(-c3ccc4cc(-c5cnc([C@@H]6COCCN6C(=O)[C@@H](NC(=O)OC)C(C)C)[nH]5)ccc4c3)cc2)[nH]1)C(C)C [compound 140] | < 1
29 | COC(=O)N[C@H](C(=O)N1CCC[C@H]1c1ncc(-c2ccc3nc(-c4ccc(-c5cnc([C@@H]6C[C@@H](O)CN6C(=O)[C@@H](NC(=O)OC)C(C)C)[nH]5)cc4)ccc3c2)[nH]1)C(C)C [compound 146] | < 1
30 | COC(=O)N[C@H](C(=O)N1CCC[C@H]1c1nc2ccc(-c3cccc4c(-c5cnc([C@@H]6CCCN6C(=O)[C@@H](NC(=O)OC)C6CCOCC6)[nH]5)cccc34)cc2[nH]1)C(C)C [compound 215] | < 1
31 | CNC(=O)N[C@@H](C(=O)N1CCC[C@H]1c1nc(-c2ccc3nc(-c4ccc(-c5cnc([C@@H]6CCCN6C(=O)[C@@H](NC(=O)OC)C(C)C)[nH]5)cc4)ccc3c2)c[nH]1)c1ccccc1 [compound 36] | < 1
32 | COC(=O)N[C@H](C(=O)N1CCC[C@H]1c1ncc(-c2ccc3cc(-c4ccc5nc([C@@H]6CCCN6C(=O)[C@@H](NC(=O)OC)C6CCOCC6)[nH]c5c4)ncc3c2)[nH]1)C1CCOCC1 [compound 217] | 1 to 9.9
33 | c1cc2nc(C34CCC(c5cnc([C@@H]6CCCN6)[nH]5)(CC3)CC4)ccc2cc1-c1c[nH]c([C@@H]2CCCN2)n1 [compound 267] | > 1000
34 | COC(=O)NC(C(=O)N1CCC[C@H]1c1nc(-c2ccc3cc(-c4ccc(-c5cnc([C@@H]6CCCN6C(=O)[C@H](NC(=O)NC(C)(C)C)c6ccccc6)[nH]5)cc4)ccc3c2)c[nH]1)C(C)C (some centres unmarked) [compound 25] | < 1
35 | COC(=O)N[C@H](C(=O)N1CCC[C@H]1c1ncc(-c2ccc(-c3nc4ccc(-c5cnc([C@@H]6CCCN6C(=O)[C@@H](NC(=O)OC)C(C)C)[nH]5)cc4s3)cc2)[nH]1)C(C)C [compound 229] | < 1
36 | COC(=O)N[C@H](C(=O)N1CCC[C@H]1c1nc(-c2ccc3cc(-c4ccc(-c5cnc([C@@H]6CCCN6C(=O)[C@H](NC(=O)OC6CCOCC6)c6ccccc6)[nH]5)cc4)ccc3c2)c[nH]1)C1CCOCC1 [compound 113] | < 1
37 | COC(=O)N[C@H](C(=O)N1CCC[C@H]1c1ncc(-c2ccc3cc(-c4ccc5nc([C@@H]6CCCN6C(=O)[C@H](NC(=O)OC)c6ccccc6)[nH]c5c4)ccc3c2)[nH]1)C(C)C [compound 181] | < 1
38 | COC(=O)N[C@H](C(=O)N1CCC[C@H]1c1ncc(-c2ccc(-c3ccc4nc(-c5cnc([C@@H]6CCCN6C(=O)[C@@H](NC(=O)OC)C(C)C)[nH]5)sc4c3)cc2)[nH]1)C(C)C [compound 258] | < 1
39 | COC(=O)N[C@H](C(=O)N1CCC[C@H]1c1ncc(-c2ccc3nc(-c4ccc5nc([C@@H]6CCCN6C(=O)[C@@H](NC(=O)OC)C6CCOCC6)[nH]c5c4)ccc3c2)[nH]1)C1CCOCC1 [compound 206] | 1 to 9.9
40 | COC(=O)N[C@H](C(=O)N1CCC[C@H]1c1ncc(-c2ccc3c(-c4ccc5[nH]c([C@@H]6CCCN6C(=O)[C@@H](NC(=O)OC)C(C)C)nc5c4)cccc3c2)[nH]1)C(C)C [compound 214] | 10 to 999
41 | COC(=O)N[C@H](C(=O)N1CCC[C@H]1c1nc(-c2ccc3cc(-c4ccc(-c5cnc([C@@H]6CCCN6C(=O)[C@@H](NC(=O)OC)C(C)C)[nH]5)cn4)ccc3c2)c[nH]1)C(C)C [compound 13] | < 1
